Data published in ChEMBL document CHEMBL6182876, “Design, synthesis and preliminary structure-activity relationship of 2-iminothiazolidine-4-one derivatives against Schistosoma japonicum in vitro and in vivo” (Eur J Med Chem, 2025).

Experiments:
Schistosoma japonicum [1] = experiment: Anti-schistosomal activity against adult Schistosoma japonicum assessed as worm mortality at 100 uM measured at 4 hrs relative to control; format: functional
Schistosoma japonicum [2] = experiment: Anti-schistosomal activity against adult Schistosoma japonicum assessed as worm mortality at 100 uM measured at 12 hrs relative to control; format: functional
Schistosoma japonicum [3] = experiment: Anti-schistosomal activity against adult Schistosoma japonicum assessed as worm mortality at 100 uM measured at 72 hrs relative to control; format: functional
Schistosoma japonicum [4] = experiment: Anti-schistosomal activity against adult Schistosoma japonicum assessed as worm mortality at 100 uM measured at 48 hrs relative to control; format: functional
Schistosoma japonicum [5] = experiment: Anti-schistosomal activity against adult Schistosoma japonicum assessed as worm mortality at 100 uM measured at 24 hrs relative to control; format: functional
Schistosoma japonicum [6] = experiment: Anti-schistosomal activity against adult Schistosoma japonicum assessed as worm mortality at 100 uM measured at 8 hrs relative to control; format: functional
Schistosoma japonicum [7] = experiment: Anti-schistosomal activity against adult Schistosoma japonicum measured at 72 hrs; format: functional, organism-based

| Compound | mortality at 100 µM (Schistosoma japonicum [1]) [%] | mortality at 100 µM (Schistosoma japonicum [2]) [%] | mortality at 100 µM (Schistosoma japonicum [3]) [%] | mortality at 100 µM (Schistosoma japonicum [4]) [%] | mortality at 100 µM (Schistosoma japonicum [5]) [%] | mortality at 100 µM (Schistosoma japonicum [6]) [%] | IC50 (Schistosoma japonicum [7]) [µM] |
| --- | --- | --- | --- | --- | --- | --- | --- |
| CCOC(=O)/C=C1\S/C(=N\c2ccccc2)N(CCCN2CCN(C)CC2)C1=O | 0 | 0 | 100 | 100 | 10 | 0 | 75.6 |
| CCOC(=O)/C=C1\S/C(=N\c2ccccc2)N(CCCN2CCOCC2)C1=O | 0 | 0 | 100 | 0 | 0 | 0 | 91.3 |
| Cc1ccccc1/C=C1\S/C(=N\c2ccc(C(F)(F)F)cc2)N(CCCN2CCN(C)CC2)C1=O | 0 | 0 | 30 | 10 | 0 | 0 |  |
| CN1CCN(CCCN2C(=O)/C(=C/c3ccc([N+](=O)[O-])cc3)S/C2=N\c2ccc(C(F)(F)F)cc2)CC1 | 0 | 0 | 70 | 30 | 0 | 0 |  |
| CCOC(=O)/C=C1\S/C(=N\c2ccc([N+](=O)[O-])cc2)N(CCCN2CCN(C)CC2)C1=O | 0 | 0 | 100 | 100 | 10 | 0 | 72 |
| CCOC(=O)/C=C1\S/C(=N\c2cc(F)ccc2F)N(CCCN2CCN(C)CC2)C1=O | 0 | 0 | 100 | 100 | 30 | 0 | 31.2 |
| CN1CCN(CCCN2C(=O)/C(=C/c3ccccc3)S/C2=N\c2ccc(C(F)(F)F)cc2)CC1 | 0 | 0 | 30 | 20 | 10 | 0 |  |
| CCOC(=O)/C=C1\S/C(=N\c2ccc(F)cc2)N(CCCN2CCN(C)CC2)C1=O | 0 | 0 | 100 | 80 | 30 | 0 | 42.8 |
| CCOC(=O)/C=C1\S/C(=N\c2cccc(Br)c2)N(CCCN2CCN(C)CC2)C1=O | 0 | 80 | 100 | 100 | 100 | 30 | 35.1 |
| CCOC(=O)/C=C1\S/C(=N\c2cc(C(F)(F)F)cc(C(F)(F)F)c2)N(CCCN2CCN(C)CC2)C1=O | 0 | 100 | 100 | 100 | 100 | 40 | 36.4 |
| CN1CCN(CCCN2C(=O)/C(=C/c3ccc(Cl)cc3)S/C2=N\c2ccc(C(F)(F)F)cc2)CC1 | 0 | 0 | 100 | 100 | 100 | 0 |  |
| CN1CCN(CCCN2C(=O)/C(=C/c3cccc(F)c3)S/C2=N\c2ccc(C(F)(F)F)cc2)CC1 | 0 | 0 | 30 | 30 | 0 | 0 |  |
| CN1CCN(CCCN2C(=O)CS/C2=N\c2ccc(C(F)(F)F)cc2)CC1 | 0 | 0 | 10 | 0 | 0 | 0 |  |
| Cc1ccc(/C=C2\S/C(=N\c3ccc(C(F)(F)F)cc3)N(CCCN3CCN(C)CC3)C2=O)cc1 | 0 | 0 | 100 | 70 | 30 | 0 |  |
| CCOC(=O)/C=C1\S/C(=N\c2ccccc2)N(CCN2CCOCC2)C1=O | 0 | 0 | 60 | 40 | 0 | 0 | 93.1 |
| CCOC(=O)/C=C1\S/C(=N\c2ccccc2)N(CCCN(C)C)C1=O | 0 | 0 | 100 | 40 | 10 | 0 | 97.7 |
| CCOC(=O)/C=C1\S/C(=N\c2cccc(Cl)c2)N(CCCN2CCN(C)CC2)C1=O | 10 | 100 | 100 | 100 | 100 | 30 | 41.2 |

| Compound | mortality at 100 µM (Schistosoma japonicum [1]) [%] | mortality at 100 µM (Schistosoma japonicum [2]) [%] | mortality at 100 µM (Schistosoma japonicum [3]) [%] | mortality at 100 µM (Schistosoma japonicum [4]) [%] | mortality at 100 µM (Schistosoma japonicum [5]) [%] | mortality at 100 µM (Schistosoma japonicum [6]) [%] | IC50 (Schistosoma japonicum [7]) [µM] |
| --- | --- | --- | --- | --- | --- | --- | --- |
| CN1CCN(CCCN2C(=O)/C(=C/c3ccccc3F)S/C2=N\c2ccc(C(F)(F)F)cc2)CC1 | 0 | 0 | 20 | 0 | 0 | 0 |  |
| CCOC(=O)/C=C1\S/C(=N\c2ccccc2)N(CCN(CC)CC)C1=O | 0 | 0 | 30 | 10 | 10 | 0 | > 100 |
| COc1ccccc1/C=C1\S/C(=N\c2ccc(C(F)(F)F)cc2)N(CCCN2CCN(C)CC2)C1=O | 0 | 0 | 70 | 10 | 0 | 0 |  |
| CCOC(=O)/C=C1\S/C(=N\c2ccc(OC)cc2)N(CCCN2CCN(C)CC2)C1=O | 0 | 0 | 30 | 10 | 0 | 0 | 95.7 |
| CCOC(=O)/C=C1\S/C(=N\c2ccccc2)N(CCN(C)C)C1=O | 0 | 0 | 10 | 0 | 0 | 0 | > 100 |
| CCOC(=O)/C=C1\S/C(=N\c2ccc(CC)cc2)N(CCCN2CCN(C)CC2)C1=O | 0 | 10 | 100 | 100 | 60 | 0 |  |
| CCOC(=O)/C=C1\S/C(=N\c2ccccc2Br)N(CCCN2CCN(C)CC2)C1=O | 0 | 60 | 100 | 100 | 100 | 20 | 30.9 |
| COc1ccc(/C=C2\S/C(=N\c3ccc(C(F)(F)F)cc3)N(CCCN3CCN(C)CC3)C2=O)cc1 | 0 | 0 | 60 | 20 | 0 | 0 |  |
| COc1cccc(/C=C2\S/C(=N\c3ccc(C(F)(F)F)cc3)N(CCCN3CCN(C)CC3)C2=O)c1 | 0 | 20 | 100 | 100 | 70 | 0 |  |
| CCOC(=O)/C=C1\S/C(=N\c2ccccc2)N(CCN2CCCC2)C1=O | 0 | 0 | 50 | 50 | 0 | 0 | > 100 |
| Cc1cc(/C=C2\S/C(=N\c3ccc(C(F)(F)F)cc3)N(CCCN3CCN(C)CC3)C2=O)ccc1F | 0 | 0 | 30 | 20 | 10 | 0 |  |
| Cc1cccc(/C=C2\S/C(=N\c3ccc(C(F)(F)F)cc3)N(CCCN3CCN(C)CC3)C2=O)c1 | 0 | 0 | 100 | 90 | 20 | 0 |  |
| CCOC(=O)/C=C1\S/C(=N\c2ccc(Cl)cc2)N(CCCN2CCN(C)CC2)C1=O | 0 | 80 | 100 | 100 | 100 | 40 | 41.8 |
| CN1CCN(CCCN2C(=O)/C(=C/c3ccccc3Cl)S/C2=N\c2ccc(C(F)(F)F)cc2)CC1 | 0 | 0 | 40 | 0 | 0 | 0 |  |
| CN1CCN(CCCN2C(=O)/C(=C/c3cccc(Cl)c3)S/C2=N\c2ccc(C(F)(F)F)cc2)CC1 | 20 | 70 | 100 | 100 | 100 | 40 |  |
| CCOC(=O)/C=C1\S/C(=N\c2ccccc2)N(Cc2ccccc2)C1=O | 0 | 0 | 0 | 0 | 0 | 0 | > 100 |
| CCOC(=O)/C=C1\S/C(=N\c2ccc(Cl)c(Cl)c2)N(CCCN2CCN(C)CC2)C1=O | 0 | 100 | 100 | 100 | 100 | 40 | 39.3 |
